Patent US10981908B2, “Aryl hydrocarbon receptor (AHR) modulator compounds” (PHENEX PHARMACEUTICALS AG, priority 2017, dated 2021)

Target: T1, AhR (Homo sapiens, UniProt P35869)
T1 construct: The HepG2 CYP1A1-Luc cells do express basal luciferase activity that can be increased via potent AhR agonists or decreased via potent AhR antagonists; endogenous in cells
T1 sequence (P35869 11-848): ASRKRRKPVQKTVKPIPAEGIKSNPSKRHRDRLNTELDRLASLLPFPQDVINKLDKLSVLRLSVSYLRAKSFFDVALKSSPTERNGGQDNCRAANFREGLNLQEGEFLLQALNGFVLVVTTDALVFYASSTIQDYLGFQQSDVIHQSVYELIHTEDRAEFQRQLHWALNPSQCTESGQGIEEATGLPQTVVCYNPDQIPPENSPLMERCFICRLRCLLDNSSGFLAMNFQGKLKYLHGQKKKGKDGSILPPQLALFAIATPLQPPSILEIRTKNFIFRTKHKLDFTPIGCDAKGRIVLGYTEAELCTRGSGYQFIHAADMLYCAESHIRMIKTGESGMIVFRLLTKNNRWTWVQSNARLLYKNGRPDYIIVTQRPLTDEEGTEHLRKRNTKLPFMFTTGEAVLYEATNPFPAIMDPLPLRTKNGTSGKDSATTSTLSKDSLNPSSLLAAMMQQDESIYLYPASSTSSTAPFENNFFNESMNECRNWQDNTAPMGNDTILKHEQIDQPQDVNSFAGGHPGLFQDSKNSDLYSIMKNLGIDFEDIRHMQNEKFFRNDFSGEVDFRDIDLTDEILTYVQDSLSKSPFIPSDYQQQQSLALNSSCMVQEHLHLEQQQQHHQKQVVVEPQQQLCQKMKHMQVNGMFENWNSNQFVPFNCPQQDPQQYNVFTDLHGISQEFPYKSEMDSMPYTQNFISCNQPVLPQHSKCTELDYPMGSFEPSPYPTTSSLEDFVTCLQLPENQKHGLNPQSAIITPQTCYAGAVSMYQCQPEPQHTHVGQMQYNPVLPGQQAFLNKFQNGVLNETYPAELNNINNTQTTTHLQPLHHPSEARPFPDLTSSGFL
Experiment: AhR direct luciferase reporter assay in HepG2 cells (HepG2 CYP1A1-LUC)
Format: cell-based
Settings: luciferase activity after 18 hours, medium with no exogenous AhR agonist or 10 nM VAF347, read-out: AhR potency (AhR antagonistic potency, IC50 class)
Text: AhR Direct Luciferase Reporter Assay in HepG2 Cells
A stable cell line (HepG2 CYP1A1-LUC) was used in which part of the promoter region of the human CYP1A1 gene is stably integrated into the genome of human HepG2 hepatocytes (DSZM #ACC 180) in front of a Photinus pyralis Firefly Luciferase gene. A 1210 bp fragment comprising part of the human CYP1A1 promoter was isolated via SacI and BgIII restriction digestion from Lightswitch Clone S714555 (SwitchGearGenomics) and inserted between the SacI and BgIII sites in pGL4.30 (Promega #E8481) in front of the Firefly Luciferase gene. The resulting vector was linearized with NotI, transfected into HepG2 cells (DSMZ #ACC 180) and stably transfected clones selected with 250 μg/ml Hygromycin B. After repetitive rounds of subcloning and testing for robustly regulated luciferase activity after AhR agonist stimulation, a stable clonal HepG2 CYP1A1-Luc cell line was selected.
The HepG2 CYP1A1-Luc cells do express basal luciferase activity that can be increased via potent AhR agonists or decreased via potent AhR antagonists, added to the growth medium of the cells.
In typical reporter assays performed with this cell line, cells are grown in 96-well plates and AhR modulators are titrated into the growth medium in serial dilutions in RPMI-1640 Medium (Sigma #R7509) supplemented with 8,6% fetal calf serum (Sigma #F7524) and containing either no exogenous AhR agonist or 10 nM of the potent AhR agonist VAF347 (Calbiochem #182690). Cells are further cultivated for 18 hours and luciferase activities are determined from extracts of cells in buffers containing D-Luciferine and ATvP using a LUMIstar Optima microplate Luminometer from BMG Labtech.

SMILES | IC50 [nM]
Cn1cncc1C(=O)Nc1ccc2cc(-c3ccccc3C(F)F)[nH]c2n1 [Example 5, N-(2-(2-(Difluoromethyl)phenyl)-1H-pyrrolo[2,3-b]pyridin-6-yl)-1-methyl-1H-imidazole-5-carboxamide] | 100 to 1000
Cn1ncnc1C(=O)Nc1ccc2cc(-c3ccccc3C(=O)O)[nH]c2n1 [Example 6, 2-(6-(1-Methyl-1H-1,2,4-triazole-5-carboxamido)-1H-pyrrolo[2,3-b]pyridin-2-yl)benzoic acid] | > 1000
Cn1ncnc1C(=O)Nc1ccc2cc(-c3ccccc3C(N)=O)[nH]c2n1 [Example 7, N-(2-(2-Carbamoylphenyl)-1H-pyrrolo[2,3-b]pyridin-6-yl)-1-methyl-1H-1,2,4-triazole-5-carboxamide] | 100 to 1000
CN(C)C(=O)c1ccccc1-c1cc2ccc(NC(=O)c3ncnn3C)nc2[nH]1 [Example 8, N-(2-(2-(Dimethylcarbamoyl)phenyl)-1H-pyrrolo[2,3-b]pyridin-6-yl)-1-methyl-1H-1,2,4-triazole-5-carboxamide] | > 1000
Cn1ncnc1C(=O)Nc1ccc2cc(-c3ccc(C(=O)O)cc3)[nH]c2n1 [Example 12/1, 4-(6-(1-Methyl-1H-1,2,4-triazole-5-carboxamido)-1H-pyrrolo[2,3-b]pyridin-2-yl)benzoic Acid] | > 1000
Cn1ncnc1C(=O)Nc1ccc2c(C#N)c(-c3ccccc3C(F)F)[nH]c2n1 [Example 14, N-(3-Cyano-2-(2-(difluoromethyl)phenyl)-1H-pyrrolo[2,3-b]pyridin-6-yl)-1-methyl-1H-1,2,4-triazole-5-carboxamide] | < 100
